Converted amounts (≈) assume the structure as drawn. The source made the active and inactive calls. No cut-off for these calls is given here.
What was measured:
Assay type in all cases: functional
[1] = tested on: Staphylococcus epidermidis; experiment: Antimicrobial activity against Staphylococcus epidermidis ATCC 12228 at 400 ug after 18 hrs by disk diffusion method; details: ATCC 12228, 18 h, read-out: DIZ
Staphylococcus aureus [2] = experiment: Antimicrobial activity against Staphylococcus aureus ATCC 29213 after 18 hrs by twofold dilution technique; details: ATCC 29213, 18 h
Staphylococcus aureus [3] = experiment: Antimicrobial activity against Staphylococcus aureus ATCC 6538 after 18 hrs by twofold dilution technique; details: ATCC 6538, 18 h
Staphylococcus aureus [4] = experiment: Antimicrobial activity against Staphylococcus aureus ATCC 6538 at 400 ug after 18 hrs by disk diffusion method; details: ATCC 6538, 18 h, read-out: DIZ
Staphylococcus aureus [5] = experiment: Antimicrobial activity against Methicillin susceptible Staphylococcus aureus 212/7 by twofold dilution technique
Staphylococcus aureus [6] = experiment: Antimicrobial activity against Staphylococcus aureus ATCC 29213 at 400 ug after 18 hrs by disk diffusion method; details: ATCC 29213, 18 h, read-out: DIZ
Micrococcus luteus [7] = experiment: Antimicrobial activity against Micrococcus luteus ATCC 10240 at 400 ug after 18 hrs by disk diffusion method; details: ATCC 10240, 18 h, read-out: DIZ
Staphylococcus aureus [8] = experiment: Antimicrobial activity against Methicillin susceptible Staphylococcus aureus 239/7 by twofold dilution technique
Staphylococcus aureus [9] = experiment: Antimicrobial activity against Methicillin susceptible Staphylococcus aureus 207/7 by twofold dilution technique
Staphylococcus aureus [10] = experiment: Antimicrobial activity against methicillin-resistant Staphylococcus aureus 143/6 by twofold dilution technique
Staphylococcus aureus [11] = experiment: Antimicrobial activity against Staphylococcus aureus NCTC 4163 after 18 hrs by twofold dilution technique; details: NCTC 4163, 18 h
Staphylococcus aureus [12] = experiment: Antimicrobial activity against Methicillin susceptible Staphylococcus aureus 242/7 by twofold dilution technique
Staphylococcus aureus [13] = experiment: Antimicrobial activity against Methicillin susceptible Staphylococcus aureus 206/7 by twofold dilution technique
Staphylococcus aureus [14] = experiment: Antimicrobial activity against methicillin-resistant Staphylococcus aureus 236/7 by twofold dilution technique
Staphylococcus aureus [15] = experiment: Antimicrobial activity against Methicillin susceptible Staphylococcus aureus 208/7 by twofold dilution technique
[16] = tested on: Staphylococcus epidermidis; experiment: Antimicrobial activity against Staphylococcus epidermidis ATCC 12228 by twofold dilution technique
Micrococcus luteus [17] = experiment: Antimicrobial activity against Micrococcus luteus ATCC 9341 at 400 ug after 18 hrs by disk diffusion method
Staphylococcus aureus [18] = experiment: Antimicrobial activity against Methicillin susceptible Staphylococcus aureus 243/7 by twofold dilution technique
Staphylococcus aureus [19] = experiment: Antimicrobial activity against Staphylococcus aureus ATCC 25923 after 18 hrs by twofold dilution technique; details: ATCC 25923, 18 h
Staphylococcus aureus [20] = experiment: Antimicrobial activity against Staphylococcus aureus NCTC 4163 at 400 ug after 18 hrs by disk diffusion method; details: NCTC 4163, 18 h, read-out: DIZ
Staphylococcus aureus [21] = experiment: Antimicrobial activity against methicillin-resistant Staphylococcus aureus 217/7 by twofold dilution technique
Staphylococcus aureus [22] = experiment: Antimicrobial activity against methicillin-resistant Staphylococcus aureus 146/6 by twofold dilution technique
Staphylococcus aureus [23] = experiment: Antimicrobial activity against Methicillin susceptible Staphylococcus aureus 237/7 by twofold dilution technique
Staphylococcus aureus [24] = experiment: Antimicrobial activity against methicillin-resistant Staphylococcus aureus 200/7 by twofold dilution technique
Staphylococcus aureus [25] = experiment: Antimicrobial activity against methicillin-resistant Staphylococcus aureus 218/7 by twofold dilution technique
Staphylococcus aureus [26] = experiment: Antimicrobial activity against methicillin-resistant Staphylococcus aureus 136/6 by twofold dilution technique
Staphylococcus aureus [27] = experiment: Antimicrobial activity against Methicillin susceptible Staphylococcus aureus 238/7 by twofold dilution technique
Bacillus subtilis [28] = experiment: Antimicrobial activity against Bacillus subtilis ATCC 6633 after 18 hrs by twofold dilution technique; details: ATCC 6633, 18 h
Staphylococcus aureus [29] = experiment: Antimicrobial activity against Methicillin susceptible Staphylococcus aureus 213/7 by twofold dilution technique
Micrococcus luteus [30] = experiment: Antimicrobial activity against Micrococcus luteus ATCC 9341 after 18 hrs by twofold dilution technique; details: ATCC 9341, 18 h
Micrococcus luteus [31] = experiment: Antimicrobial activity against Micrococcus luteus ATCC 10240 by twofold dilution technique
Bacillus cereus [32] = experiment: Antimicrobial activity against Bacillus cereus ATCC 11778 after 18 hrs by twofold dilution technique; details: ATCC 11778, 18 h
Bacillus cereus [33] = experiment: Antimicrobial activity against Bacillus cereus ATCC 11778 at 400 ug after 18 hrs by disk diffusion method; details: ATCC 11778, 18 h, read-out: DIZ
Staphylococcus aureus [34] = experiment: Antimicrobial activity against methicillin-resistant Staphylococcus aureus 144/6 by twofold dilution technique
Staphylococcus aureus [35] = experiment: Antimicrobial activity against Staphylococcus aureus ATCC 25923 at 400 ug after 18 hrs by disk diffusion method; details: ATCC 25923, 18 h, read-out: DIZ
Staphylococcus aureus [36] = experiment: Antimicrobial activity against methicillin-resistant Staphylococcus aureus 141/6 by twofold dilution technique
Staphylococcus aureus [37] = experiment: Antimicrobial activity against methicillin-resistant Staphylococcus aureus 140/6 by twofold dilution technique
Enterococcus hirae [38] = experiment: Antimicrobial activity against Enterococcus hirae ATCC 10541 at 400 ug after 18 hrs by disk diffusion method
Bacillus subtilis [39] = experiment: Antimicrobial activity against Bacillus subtilis ATCC 6633 at 400 ug after 18 hrs by disk diffusion method; details: ATCC 6633, 18 h, read-out: DIZ
Enterococcus hirae [40] = experiment: Antimicrobial activity against Enterococcus hirae ATCC 10541 after 18 hrs by twofold dilution technique; details: ATCC 10541, 18 h

Cc1cc2c(C(C)C)c(O)c(O)c(C=O)c2c(O)c1-c1c(C)cc2c(C(C)C)c(O)c(O)c(C=O)c2c1O [GOSSYPOL]
zone of inhibition at 400 µg/disc [1]: 16 mm
MIC (Staphylococcus aureus [2]): 12.5 µg/mL (≈ 24.1 µM)
MIC (Staphylococcus aureus [3]): 12.5 µg/mL (≈ 24.1 µM)
zone of inhibition at 400 µg/disc (Staphylococcus aureus [4]): 14 mm
MIC (Staphylococcus aureus [5]): 50 µg/mL (≈ 96.4 µM)
zone of inhibition at 400 µg/disc (Staphylococcus aureus [6]): 15 mm
zone of inhibition at 400 µg/disc (Micrococcus luteus [7]): 16 mm
MIC (Staphylococcus aureus [8]): 25 µg/mL (≈ 48.2 µM)
MIC (Staphylococcus aureus [9]): 50 µg/mL (≈ 96.4 µM)
MIC (Staphylococcus aureus [10]): 50 µg/mL (≈ 96.4 µM)
MIC (Staphylococcus aureus [11]): 50 µg/mL (≈ 96.4 µM)
MIC (Staphylococcus aureus [12]): 12.5 µg/mL (≈ 24.1 µM)
MIC (Staphylococcus aureus [13]): 25 µg/mL (≈ 48.2 µM)
MIC (Staphylococcus aureus [14]): 50 µg/mL (≈ 96.4 µM)
MIC (Staphylococcus aureus [15]): 50 µg/mL (≈ 96.4 µM)
MIC [16]: 100 µg/mL (≈ 193 µM)
zone of inhibition at 400 µg/disc (Micrococcus luteus [17]; ATCC 9341, 18 h, read-out: DIZ): 12 mm
MIC (Staphylococcus aureus [18]): 25 µg/mL (≈ 48.2 µM)
MIC (Staphylococcus aureus [19]): 25 µg/mL (≈ 48.2 µM)
zone of inhibition at 400 µg/disc (Staphylococcus aureus [20]): 16 mm
MIC (Staphylococcus aureus [21]): 50 µg/mL (≈ 96.4 µM)
MIC (Staphylococcus aureus [22]): 50 µg/mL (≈ 96.4 µM)
MIC (Staphylococcus aureus [23]): 25 µg/mL (≈ 48.2 µM)
MIC (Staphylococcus aureus [24]): 50 µg/mL (≈ 96.4 µM)
MIC (Staphylococcus aureus [25]): 50 µg/mL (≈ 96.4 µM)
MIC (Staphylococcus aureus [26]): 50 µg/mL (≈ 96.4 µM)
MIC (Staphylococcus aureus [27]): 25 µg/mL (≈ 48.2 µM)
MIC (Bacillus subtilis [28]): 100 µg/mL (≈ 193 µM)
MIC (Staphylococcus aureus [29]): 50 µg/mL (≈ 96.4 µM)
MIC (Micrococcus luteus [30]): 25 µg/mL (≈ 48.2 µM)
MIC (Micrococcus luteus [31]): 50 µg/mL (≈ 96.4 µM)
MIC (Bacillus cereus [32]): 25 µg/mL (≈ 48.2 µM)
zone of inhibition at 400 µg/disc (Bacillus cereus [33]): 15 mm
MIC (Staphylococcus aureus [34]): 50 µg/mL (≈ 96.4 µM)
zone of inhibition at 400 µg/disc (Staphylococcus aureus [35]): 15 mm
MIC (Staphylococcus aureus [36]): 50 µg/mL (≈ 96.4 µM)
MIC (Staphylococcus aureus [37]): 50 µg/mL (≈ 96.4 µM)
zone of inhibition at 400 µg/disc (Enterococcus hirae [38]; ATCC 10541, 18 h, read-out: DIZ): 14 mm
zone of inhibition at 400 µg/disc (Bacillus subtilis [39]): 15 mm
MIC (Enterococcus hirae [40]): 25 µg/mL (≈ 48.2 µM)

Cc1cc2c(C(C)C)c(O)c(O)c(/C=N/N3CCN(CCO)CC3)c2c(O)c1-c1c(C)cc2c(C(C)C)c(O)c(O)c(/C=N/N3CCN(CCO)CC3)c2c1O
zone of inhibition at 400 µg/disc [1]: 14 mm
MIC (Staphylococcus aureus [2]): 25 µg/mL (≈ 32.3 µM)
MIC (Staphylococcus aureus [3]): 25 µg/mL (≈ 32.3 µM)
zone of inhibition at 400 µg/disc (Staphylococcus aureus [4]): 12 mm
MIC (Staphylococcus aureus [5]): 50 µg/mL (≈ 64.7 µM)
zone of inhibition at 400 µg/disc (Staphylococcus aureus [6]): 12 mm
zone of inhibition at 400 µg/disc (Micrococcus luteus [7]): 15 mm
MIC (Staphylococcus aureus [8]): 25 µg/mL (≈ 32.3 µM)
MIC (Staphylococcus aureus [9]): 50 µg/mL (≈ 64.7 µM)
MIC (Staphylococcus aureus [10]): 50 µg/mL (≈ 64.7 µM)
MIC (Staphylococcus aureus [11]): 50 µg/mL (≈ 64.7 µM)
MIC (Staphylococcus aureus [12]): 12.5 µg/mL (≈ 16.2 µM)
MIC (Staphylococcus aureus [13]): 25 µg/mL (≈ 32.3 µM)
MIC (Staphylococcus aureus [14]): 25 µg/mL (≈ 32.3 µM)
MIC (Staphylococcus aureus [15]): 50 µg/mL (≈ 64.7 µM)
MIC [16]: 200 µg/mL (≈ 259 µM)
diameter of the inhibition zone (DIZ) (Micrococcus luteus [17]): inactive
MIC (Staphylococcus aureus [18]): 25 µg/mL (≈ 32.3 µM)
MIC (Staphylococcus aureus [19]): 50 µg/mL (≈ 64.7 µM)
zone of inhibition at 400 µg/disc (Staphylococcus aureus [20]): 13 mm
MIC (Staphylococcus aureus [21]): 50 µg/mL (≈ 64.7 µM)
MIC (Staphylococcus aureus [22]): 50 µg/mL (≈ 64.7 µM)
MIC (Staphylococcus aureus [23]): 25 µg/mL (≈ 32.3 µM)
MIC (Staphylococcus aureus [24]): 50 µg/mL (≈ 64.7 µM)
MIC (Staphylococcus aureus [25]): 50 µg/mL (≈ 64.7 µM)
MIC (Staphylococcus aureus [26]): 50 µg/mL (≈ 64.7 µM)
MIC (Staphylococcus aureus [27]): 25 µg/mL (≈ 32.3 µM)
MIC (Bacillus subtilis [28]): 100 µg/mL (≈ 129 µM)
MIC (Staphylococcus aureus [29]): 50 µg/mL (≈ 64.7 µM)
MIC (Micrococcus luteus [30]): 50 µg/mL (≈ 64.7 µM)
MIC (Micrococcus luteus [31]): 50 µg/mL (≈ 64.7 µM)
MIC (Bacillus cereus [32]): 25 µg/mL (≈ 32.3 µM)
zone of inhibition at 400 µg/disc (Bacillus cereus [33]): 12 mm
MIC (Staphylococcus aureus [34]): 50 µg/mL (≈ 64.7 µM)
zone of inhibition at 400 µg/disc (Staphylococcus aureus [35]): 13 mm
MIC (Staphylococcus aureus [36]): 50 µg/mL (≈ 64.7 µM)
MIC (Staphylococcus aureus [37]): 50 µg/mL (≈ 64.7 µM)
diameter of the inhibition zone (DIZ) (Enterococcus hirae [38]): inactive
zone of inhibition at 400 µg/disc (Bacillus subtilis [39]): 12 mm
MIC (Enterococcus hirae [40]): 50 µg/mL (≈ 64.7 µM)

Reference: ChEMBL document CHEMBL1155271, “Synthesis, crystal structures and antibacterial activity studies of aza-derivatives of phytoalexin from cotton plant--gossypol” (2009)
